Experimental data: article PMC5712521, “Dendrogenin A drives LXR to trigger lethal autophagy in cancers” (Nature Communications, 2017)

Legend:
[1] = system: B16F10 cells; test: DDA-induced cytotoxicity (cell death); format: cell-based; conditions: Mus musculus, B16-F10, 72 h, read-out: Cytotox EC50
Procedure: (§1) Melanoma cells were seeded into 6-well plates at 60,000 cells per well and AML cells at 250,000 cells/ml. The cells were then treated with control solvent vehicle (1/1000 ethanol in water) or DDA. Where indicated, treated cells were incubated in the presence or absence of each inhibitor for time shown. Cell death was determined by the trypan blue exclusion assay. Cells were scraped and resuspended in trypan blue solution (0.25% (w/v) in PBS) and counted in a Malassez cell under light microscopy. Cell viability was then quantified by counting viable (trypan blue-negative) and dead cells (trypan blue-positive).
(§2) Supplementary Fig. 1. a DDA inhibited m elanom a colony form ation. Melanom a cells were […]
(§3) a 0.5% solution of crystal violet in water and analyzed by microscopy. Images are representative of 5 independent experiments. b Evaluation of DDA-induced cytotoxicity (cytotox) and clonogenicity (clono) inhibition in a subset of human (H) and mouse (M) m elanom a cell lines. T he BRaf status in m elanom a cells lines is shown. […]

[2] = system: SKMEL-28 cells; test: DDA-induced cytotoxicity (cell death); format: cell-based; conditions: Homo sapiens, SK-MEL-28; SKMEL-28 (H), BRaf V600E; 72 h; read-out: Cytotox EC50
Procedure: as §1, §2, §3

[3] = system: SKMEL-28 cells; test: RT-qPCR of LXR-responsive genes; format: cell-based, human; conditions: 8 h, 2.5 µM DDA, 10 µM 22(R)HC, 1 µM GW, 100 nM TO, vs vehicle
Procedure: (§4) Total RNA was extracted from tumor cells or MEFs using an RNA Extraction kit (Qiagen) or Trizol (Invitrogen), respectively, and was quantified with NanoDrop. Complementary DNA (cDNA) synthesis was performed with 1 μg RNA iScript Reverse Transcriptase (Bio-Rad). 25 ng cDNA was amplified using SyBR Supermix (Bio-Rad). RNA expression of the different genes of interest (Supplementary Tables 1, 2) were determined using the ΔΔCT method, where the difference in the threshold cycle (ΔCT) values of the target gene and the housekeeping gene for each sample was normalized to the ΔCT value of the untreated sample.
Supplementary Fig. 4. a R egulat ion of LXR-responsive genes b y D DA and other k nown LXR
ligands in B16F10 and SKMEL- 28 cells transfected with s iRN A targeting LXRβ ( siLXRβ) or
with contro l siRN A scram ble (siSC). Cells were treated for 8 h with either solvent vehicle, 2.5
µM DD A, 10 µM 22(R) hydrox ycholesterol (22(R)HC), 1 µM GW 3965 (GW ) or 100 nM
T O901317 (T O). […]

[4] = system: SKMEL-28 cells; test: Sterol analysis by GC/MS; format: cell-based, human; conditions: 2.5 µM DDA, 24 h
Procedure: Sterols in cell homogenates were extracted with a solvent mixture containing chloroform/methanol 2/1 (v/v) spiked with epicoprostanol as the internal standard. Lipids were partitioned in chloroform after the addition of saline and saponified by methanolic potassium hydroxide (0.5 N, 60 °C, 15 min). The fatty acids released were methylated with BF3-methanol (12%, 60 °C, 15 min) to not interfere with the chromatography of sterols. The sterols were re-extracted in hexane and silylated, as described previously. The trimethylsilylether derivatives of the sterols were separated by gas chromatography (GC) (Hewlett–Packard 6890 series) in a medium polarity capillary column RTX-65, (65% diphenyl 35% dimethyl polysiloxane, length 30 m, diameter 0.32 mm, film thickness 0.25 μm (Restesk, Evry, France)). The mass spectrometer (Agilent 5975 inert XL) in series with the GC was set up for the detection of positive ions. Ions were produced in the electron impact mode at 70 eV. Sterols were identified by the fragmentogram in the scanning mode and quantified by selective monitoring of the specific ions after normalization with the internal standard epicoprostanol and calibration with weighed standards. […]
Quantification of sterols ac cum ulation in SKMEL- 2 8 c ells either expressing LXRβ (shCT L) or with LXRβ (sh3 or sh4LXR β) k nock ed down after 24 h treatm ent with 2.5 µ M DD A or solvent vehicle. Anal yses were perform ed by GC/MS. f Quantification of sterols accumulated in m elanom a cells after 24 h treatm ent with 10 µM 22(R) HC, 1 µ M GW , 100 nM T O or solvent […]
vehicle. […]

[5] = system: HL60 cells; test: qRT-PCR of Nur77 and NOR1; format: cell-based, human; conditions: HL60, 24 h; 5 µM DDA, 2 µM TO, 2 µM GW, 10 µM 22(R)HC
Procedure: as §4
(§5) Supplementary Fig. 6. […]
(§6) D ata are expressed relative to the control (solvent vehic le). D ata from b, f, g, h, j, p, q ar e the m eans ± S.E.M. of 3 independent experiments performed in triplicate (*P<0.05, **P<0.01, ***P<0.001, t test). Images are representative of 3 independent experim ents.

[6] = system: KG1 cells; test: qRT-PCR of Nur77 and NOR1; format: cell-based, human; conditions: KG1, 24 h; 5 µM DDA, 2 µM TO, 2 µM GW, 10 µM 22(R)HC
Procedure: as §4, §5, §6

SMILES: CC(C)CCC[C@@H](C)[C@H]1CC[C@H]2[C@@H]3C[C@@H](NCCc4cnc[nH]4)[C@@]4(O)C[C@@H](O)CC[C@]4(C)[C@H]3CC[C@]12C [DDA, Dendrogenin A]
- EC50 [1]: 700 ± 100 nM
- EC50 [2]: 2100 ± 200 nM
- ABCA1 mRNA ([3]; SKMEL-28, siCT): 0.4±0.1 fold
- ABCG1 mRNA ([3]; SKMEL-28, siCT): 1.0±0.1 fold
- ABCG5 mRNA ([3]; SKMEL-28, siCT): 3.9±0.4 fold
- ABCG8 mRNA ([3]; SKMEL-28, siCT): 0.2±0.1 fold
- LC3A mRNA ([3]; SKMEL-28, siCT): 1.7±0.2 fold
- LC3B mRNA ([3]; SKMEL-28, siCT): 1.6±0.1 fold
- LDLR mRNA ([3]; SKMEL-28, siCT): 3.2±0.3 fold
- NOR1 mRNA ([3]; SKMEL-28, siCT): 4.8±0.2 fold
- Nur77 mRNA ([3]; SKMEL-28, siCT): 8.2±0.2 fold
- SCD1 mRNA ([3]; SKMEL-28, siCT): 2.2±0.2 fold
- SREBP1 mRNA ([3]; SKMEL-28, siCT): 0.9±0.2 fold
- SULT2B1b mRNA ([3]; SKMEL-28, siCT): 2.9±0.1 fold
- ABCA1 mRNA ([3]; SKMEL-28, siLXRβ): 0.9±0.1 fold
- ABCG1 mRNA ([3]; SKMEL-28, siLXRβ): 0.8±0.2 fold
- ABCG5 mRNA ([3]; SKMEL-28, siLXRβ): 1.1±0.2 fold
- ABCG8 mRNA ([3]; SKMEL-28, siLXRβ): 0.7±0.2 fold
- LC3A mRNA ([3]; SKMEL-28, siLXRβ): 0.8±0.2 fold
- LC3B mRNA ([3]; SKMEL-28, siLXRβ): 0.9±0.3 fold
- LDLR mRNA ([3]; SKMEL-28, siLXRβ): 1.8±0.2 fold
- NOR1 mRNA ([3]; SKMEL-28, siLXRβ): 1.0±0.1 fold
- Nur77 mRNA ([3]; SKMEL-28, siLXRβ): 1.2±0.2 fold
- SCD1 mRNA ([3]; SKMEL-28, siLXRβ): 1.2±0.1 fold
- SREBP1 mRNA ([3]; SKMEL-28, siLXRβ): 1.0±0.3 fold
- SULT2B1b mRNA ([3]; SKMEL-28, siLXRβ): 1.1±0.2 fold
- Sterol amount/total sterol: 7-DHC ([4]; SKMEL-28 Sh3LXRβ): 0.03± 0.02
- Sterol amount/total sterol: 8-DHC ([4]; SKMEL-28 Sh3LXRβ): 1.52± 0.10
- Sterol amount/total sterol: desmosterol ([4]; SKMEL-28 Sh3LXRβ): 0.01± 0.009
- Sterol amount/total sterol: lathosterol ([4]; SKMEL-28 Sh3LXRβ): 0.71± 0.02
- Sterol amount/total sterol: zymostenol ([4]; SKMEL-28 Sh3LXRβ): 5.78± 0.82
- Sterol amount/total sterol: 7-DHC ([4]; SKMEL-28 Sh4LXRβ): 0.39± 0.09
- Sterol amount/total sterol: 8-DHC ([4]; SKMEL-28 Sh4LXRβ): 4.32± 0.66
- Sterol amount/total sterol: desmosterol ([4]; SKMEL-28 Sh4LXRβ): 0.02± 0.005
- Sterol amount/total sterol: zymostenol ([4]; SKMEL-28 Sh4LXRβ): 6.57± 0.92
- Sterol amount/total sterol: 7-DHC ([4]; SKMEL-28 shCTRL): 0.03± 0.006
- Sterol amount/total sterol: 8-DHC ([4]; SKMEL-28 shCTRL): 5.81± 0.89
- Sterol amount/total sterol: desmosterol ([4]; SKMEL-28 shCTRL): 0.01± 0.008
- Sterol amount/total sterol: lathosterol ([4]; SKMEL-28 shCTRL): 0.41± 0.03
- Sterol amount/total sterol: zymostenol ([4]; SKMEL-28 shCTRL): 2.60±0.07
- NOR1 mRNA levels (Fold over control) [5]: 6.3 fold
- Nur77 mRNA levels (Fold over control) [5]: 11.2 fold
- NOR1 mRNA levels (Fold over control) [6]: 12.2 fold
- Nur77 mRNA levels (Fold over control) [6]: 8.8 fold
